The text below walks through data of ChEMBL document CHEMBL3727350, “Agents and methods for treating ischemic and other diseases” (2014).

The source made the active and inactive calls. No cut-off for these calls is given here.

Sequence of Transient receptor potential cation channel subfamily M member 7 (Mus musculus) (Q923J1 whole entry): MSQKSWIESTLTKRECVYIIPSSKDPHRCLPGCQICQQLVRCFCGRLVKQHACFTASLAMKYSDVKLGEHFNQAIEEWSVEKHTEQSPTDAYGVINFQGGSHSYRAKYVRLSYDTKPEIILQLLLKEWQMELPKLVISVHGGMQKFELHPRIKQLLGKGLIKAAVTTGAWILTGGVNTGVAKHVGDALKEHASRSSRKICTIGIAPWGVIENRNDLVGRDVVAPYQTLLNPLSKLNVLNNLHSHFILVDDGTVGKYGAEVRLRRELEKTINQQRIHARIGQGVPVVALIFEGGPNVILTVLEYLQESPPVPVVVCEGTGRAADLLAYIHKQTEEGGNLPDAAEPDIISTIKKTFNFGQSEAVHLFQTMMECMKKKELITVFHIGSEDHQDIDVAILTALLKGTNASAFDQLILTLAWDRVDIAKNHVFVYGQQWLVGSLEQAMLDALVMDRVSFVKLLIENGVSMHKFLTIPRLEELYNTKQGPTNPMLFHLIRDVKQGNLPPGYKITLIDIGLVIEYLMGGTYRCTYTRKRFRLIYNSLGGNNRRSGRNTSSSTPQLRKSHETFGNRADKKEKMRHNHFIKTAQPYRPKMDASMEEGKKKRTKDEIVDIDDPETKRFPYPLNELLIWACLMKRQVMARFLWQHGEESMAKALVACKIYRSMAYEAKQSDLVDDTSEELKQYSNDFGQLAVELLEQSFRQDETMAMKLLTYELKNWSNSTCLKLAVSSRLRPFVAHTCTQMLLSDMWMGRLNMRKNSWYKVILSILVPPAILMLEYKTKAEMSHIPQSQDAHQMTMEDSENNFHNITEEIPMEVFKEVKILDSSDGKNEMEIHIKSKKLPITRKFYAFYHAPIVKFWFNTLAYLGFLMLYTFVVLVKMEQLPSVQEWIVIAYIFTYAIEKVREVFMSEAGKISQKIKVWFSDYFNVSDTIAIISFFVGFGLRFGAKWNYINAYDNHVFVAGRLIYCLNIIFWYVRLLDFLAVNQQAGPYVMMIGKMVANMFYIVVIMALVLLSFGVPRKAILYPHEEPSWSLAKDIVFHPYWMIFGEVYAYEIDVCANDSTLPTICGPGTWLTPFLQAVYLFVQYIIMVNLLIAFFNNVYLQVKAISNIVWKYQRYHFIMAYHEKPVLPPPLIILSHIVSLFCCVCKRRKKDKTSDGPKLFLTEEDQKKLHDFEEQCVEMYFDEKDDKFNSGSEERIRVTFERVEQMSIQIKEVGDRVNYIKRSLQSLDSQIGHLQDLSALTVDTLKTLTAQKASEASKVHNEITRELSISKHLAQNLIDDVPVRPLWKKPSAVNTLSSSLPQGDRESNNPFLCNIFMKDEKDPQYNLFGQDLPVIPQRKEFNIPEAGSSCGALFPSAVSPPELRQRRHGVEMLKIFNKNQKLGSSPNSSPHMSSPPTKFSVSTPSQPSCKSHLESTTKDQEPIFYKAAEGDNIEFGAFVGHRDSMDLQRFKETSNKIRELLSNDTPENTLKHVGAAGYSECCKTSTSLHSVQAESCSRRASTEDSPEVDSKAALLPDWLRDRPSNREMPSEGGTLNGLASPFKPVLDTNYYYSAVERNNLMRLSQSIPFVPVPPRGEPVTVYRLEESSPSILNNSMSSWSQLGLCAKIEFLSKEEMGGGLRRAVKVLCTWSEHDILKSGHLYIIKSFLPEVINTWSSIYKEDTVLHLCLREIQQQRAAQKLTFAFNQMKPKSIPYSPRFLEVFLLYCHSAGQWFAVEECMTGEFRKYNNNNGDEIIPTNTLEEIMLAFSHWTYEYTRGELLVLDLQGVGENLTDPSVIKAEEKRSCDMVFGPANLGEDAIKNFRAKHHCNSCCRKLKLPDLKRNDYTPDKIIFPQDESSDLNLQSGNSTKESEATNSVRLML

One assay concerns the target Transient receptor potential cation channel subfamily M member 7 (Mus musculus) (UniProt Q923J1). In words: Inhibition of TRPM7 in mouse primary neuronal cells exposed to oxygen glucose deprivation condition for 1 to 3 hrs assessed as reduction in TRPM7-mediated anoxic cell death dosed before oxygen glucose deprivation condition by propidium iodide uptake assay. To be noted: Primary neuron.
As for `COc1ccc(OC)c(SCc2nnc(-c3ccc([N+](=O)[O-])c(C)c3)o2)c1`, the inhibition entry was “Active”.

For a further assay the target is unchanged. The assay is described as follows: Inhibition of TRPM7 in mouse mouse primary cortical neurons exposed to 2 hrs oxygen glucose deprivation condition assessed as reduction in TRPM7-mediated anoxic cell death measured after 20 hrs by propidium iodide uptake assay. It counts as cell-based. The conditions noted are these: Cerebral cortex neuron.
As for `COc1ccc(OC)c(SCc2nnc(-c3ccc([N+](=O)[O-])c(C)c3)o2)c1`, the inhibition result was “Active”.

The target is the same in another assay. In words: Inhibition of Tet-induced Flag-tagged mouse TRPM7 expressed in HEK293 cells assessed as inhibition of channel-mediated cell death in presence of Mg2+ incubated for 24 to 48 hrs by propidium iodide uptake assay. The format is cell-based. Details: concentration or dose not given beside the values.
Details: not given
As to `COc1ccccc1N1CCN(CC(O)COc2cccc3ccccc23)CC1` (stereo unspecified), the inhibition entry is “Dose-dependent effect”. As for `COc1cccc(OC)c1OCCNCC1CSc2ccccc2O1` (stereo unspecified), the inhibition result is “Dose-dependent effect”. Still for that read-out and setting: then `COc1cc2c(cc1OC)-c1c/c(=N\c3c(C)cc(C)cc3C)n(C)c(=O)n1CC2`, with “Dose-dependent effect”; and `Ic1ccccc1CN[C@@H]1C2CCN(CC2)[C@@H]1C(c1ccccc1)c1ccccc1` (relative stereo), with “Dose-dependent effect”.

Regarding `COc1cc(/C=C/C(=O)N2CCC=CC2=O)cc(OC)c1OC`, the inhibition result is “Dose-dependent effect”. Same read-out and setting: the value for `COc1ccc(C[C@H]2NC[C@H](O)[C@H]2OC(C)=O)cc1` was “Dose-dependent effect”.

The assay is the same for the next values; noted with them: concentration not given here.
For `COc1ccc(OC)c(SCc2nnc(-c3ccc([N+](=O)[O-])c(C)c3)o2)c1`, the inhibition was found to be 80%. On the same count and under the same terms, then `CC1(C)C=Cc2ccc(OCC(=O)Nc3ccccc3)cc2O1`, with 30%; and `Cn1nc(-c2ccc(Cl)cc2)cc1NS(=O)(=O)c1cccc2nonc12`, with below 30%; and `O=C(Nc1ccccc1)OCCSCc1ccc2nc(C(F)(F)F)ccc2c1`, with 60%.

`N#C/C(=N\Nc1cccc(C(F)(F)F)c1)C(=O)c1csc(-c2cccnc2)n1`: the inhibition stood at 60%.

`O=C(Nc1ccc(Cl)cc1)Nc1ccccc1Oc1ccccc1`: the inhibition is 50%. The same measure, in the same setting: the value for `CSc1nccc(-c2ccc(S(=O)(=O)n3nc(C)c(Br)c3C)s2)n1` was below 30%. Same read-out and setting: then `CCCCCCCCCc1c(O)c2ccccc2[nH]c1=O`, with 60%. Same read-out and setting: the value for `Cc1onc(-c2c(Cl)cccc2Cl)c1C(=O)OCCOc1ccc(C(F)(F)F)cc1[N+](=O)[O-]` was 60%; that for `O=C(NC(=O)c1c(Cl)cccc1Cl)Nc1nc2cc(Cl)ccc2s1` was 50%.

Take `N#Cc1ccc(NS(=O)(=O)c2ccc3ccccc3c2)cc1`: the inhibition is 40%. Turning to `Cc1cccn2cc(-c3ccccc3Cl)nc12`, the inhibition turned out to be 30%.

In the case of `Cc1noc(C)c1C(=O)OCc1ccc(-c2ccc(F)cc2F)o1`, the inhibition came to 50%. Same read-out and setting: then `CCCCCCCC(=O)NC1=NC2c3ccc(OC)cc3CCC2S1` (stereo unspecified), with 70%; and `CC(C)NC(=S)Nc1ccc2c(c1)S(=O)(=O)C=C2`, with below 30%; and `COc1cccc(/C=C2/C=C(C3CCCS3)OC2=O)c1OC` (stereo unspecified), with below 30%. In the case of `COc1ccccc1N1CCN(Cc2c[nH]c(-c3ccccc3)n2)CC1`, the inhibition is below 30%. `CC(C)c1ccc(-c2cc(=O)c3ccccc3o2)cc1`: the inhibition stood at 80%.

With `O=C(Nc1ccc(F)cc1F)c1cc(Cl)cc(Cl)c1O`, the inhibition was below 30%. Same read-out and setting: then `O/N=C/c1ccc2c(c1)CCO2`, with below 30%; and `COc1cc2c(cc1OC)C(C(=O)c1sc3ccccc3c1Cl)=NCC2`, with 80%.

Take `CN(C)c1cccc(N(C)C)c1CNC(=O)Nc1ccccc1`: the inhibition is below 30%. On the same count and under the same terms, the value for `CCOC(C)CNC(=S)N/N=C/c1cccnc1` (stereo unspecified) was below 30%. As for `CC(=O)N1N=C(c2ccccc2O)CC1c1ccc(Cl)cc1Cl` (stereo unspecified), the inhibition is below 30%.

In the case of `COc1ccc(C(=O)Nc2c(-c3ccc(Br)cc3)c(C(F)(F)F)nn2C)cc1OC`, the inhibition is below 30%. On the same count and under the same terms, then `FC(F)(F)c1ccccc1NC(=S)N1CCCN(c2nc3ccc(Cl)cc3s2)CC1`, with 60%; and `COc1ccc2c(c1)CCCN2C(=O)c1sc2ccccc2c1Cl`, with 60%. In the case of `CC(=O)/C(C#N)=C/c1ccco1`, the inhibition is below 30%. Turning to `CC(C)(C)OC(=O)N1CCN(c2ccc(NS(=O)(=O)c3ccc(Cl)cc3)cn2)CC1`, the inhibition is below 30%.

Take `O=C(Nc1cccc(C(F)(F)F)c1)Nc1nnc(C2CC2)s1`: the inhibition amounted to 50%. With `CCOC(=O)c1cc2c(NC(=O)c3ccc(Cl)cc3)c(C(=O)OCC)sc2nc1C(F)(F)F`, the inhibition was below 30%. The same measure, in the same setting: the value for `CNC(=O)c1cc([N+](=O)[O-])cc2c1-c1ccc([N+](=O)[O-])cc1C2=O` was below 30%; that for `CCOC(=O)C(C#N)Cc1c(C)c(C)c(C)c(C)c1C` (stereo unspecified) was below 30%. Still for that read-out and setting: then `O=C1c2ccccc2C(=O)N1Cc1cccc(I)c1`, with 40%; and `O=C1/C(=C\c2ccc3c(c2)OCO3)C(c2ccccc2)Oc2ccccc21` (stereo unspecified), with 50%; and `CC(=O)OC[C@H](OC(C)=O)[C@@H](OC(C)=O)[C@@H](OC(C)=O)[C@H](OC(C)=O)c1nnn[nH]1`, with below 30%.

In the case of `Cc1cc(C(=O)NNC(=O)Nc2ccc(Cl)cc2)no1`, the inhibition was determined as 30%. For the compound `c1ccc2c(CNCc3cccc4ccccc34)cccc2c1`, the inhibition came to 70%. Consider `Cc1ccccc1NC(=O)NCc1cccs1`, for which the inhibition is 60%. As to `C/C=C(\C)C(=O)Nc1nncs1`, the inhibition was below 30%. Same read-out and setting: the value for `CC(=O)OC[C@H]1OC(OC(C)(C)C)[C@H](OC(C)=O)[C@@H](OC(C)=O)[C@@H]1OC(C)=O` (stereo partly specified) was 40%; that for `Clc1cc(Cl)c(N/N=C/c2cc(C#Cc3ccccc3)cs2)c(Cl)c1` was 50%.

`CCOC(=O)c1cc(Cl)ccc1OS(=O)(=O)c1ccc(NC(C)=O)cc1`: the inhibition was 50%. Regarding `CCOC(=O)c1cc(C)nn1C(=O)c1ccccc1Cl`, the inhibition was 30%. The same measure, in the same setting: the value for `CC(=O)c1ccc(Nc2cc(C)nc3ccccc23)cc1` was below 30%; that for `CC(=O)Nc1cc(C)ccc1C` was below 30%. `Cc1cc(S(=O)(=O)Cc2noc(-c3c(C)noc3C)n2)c(C)cc1Cl`: the inhibition came out at 40%. The same measure, in the same setting: the value for `C#CCOC(=O)NC(=O)c1c(-c2ccc(Cl)cc2)n[nH]c1SC` was below 30%; that for `Clc1ccc(-c2noc(-c3sccc3Cl)n2)cc1` was 60%; that for `N/C(=N\OC(=O)c1ccc(OCC(F)(F)F)nc1)c1ccc(OC(F)(F)F)cc1` was below 30%.

The next assay shares this target. In words: Inhibition of Tet-induced Flag-tagged mouse TRPM7 expressed in HEK293 cells assessed as reduction in channel currents at 0.3 to 30 uM by whole cell patch clamp assay. It counts as cell-based.
Details: not given
As to `COc1ccc(OC)c(SCc2nnc(-c3ccc([N+](=O)[O-])c(C)c3)o2)c1`, the inhibition entry was “Active”.

The subject of the next assay is HEK293. In words: Effect on Tet-induced Flag-tagged mouse TRPM7 expression in HEK293 cells. The format is functional, cell-based. To be noted: Homo sapiens.
Regarding `O=C(O)c1cc(=O)cc(C(=O)O)[nH]1`, the result was inactive. In the case of `C[n+]1cc2c3c(ccc2c2ccc4cc5c(cc4c21)OCO5)OCO3`, the outcome was inactive.

On to `O=C1c2c(O)ccc(O)c2C(=O)c2c(NCCNCCO)ccc(NCCNCCO)c21`, for which the outcome was inactive. Turning to `CCN(CC)CCCC(C)Nc1c2ccc(Cl)cc2nc2ccc(OC)cc12` (stereo unspecified), the outcome was inactive. With `COc1ccccc1N1CCN(CC(O)COc2cccc3ccccc23)CC1` (stereo unspecified), the outcome was inactive.

In the case of `COc1cccc(OC)c1OCCNCC1CSc2ccccc2O1` (stereo unspecified), the outcome was inactive. Still for that read-out and setting: the value for `COC(=O)C1=C(C)NC(C)=C(C(=O)OCCN(C)Cc2ccccc2)C1c1cccc([N+](=O)[O-])c1` (stereo unspecified) was “inactive”; that for `COc1cc2c(cc1OC)-c1c/c(=N\c3c(C)cc(C)cc3C)n(C)c(=O)n1CC2` was “inactive”. On the same count and under the same terms, then `Ic1ccccc1CN[C@@H]1C2CCN(CC2)[C@@H]1C(c1ccccc1)c1ccccc1` (relative stereo), with “inactive”.

Another assay addresses Transient receptor potential cation channel subfamily M member 7 (Mus musculus) (UniProt Q923J1). The assay is described as follows: Inhibition of TRPM7 in mouse primary neuronal cells exposed to oxygen glucose deprivation condition for 1 to 3 hrs assessed as reduction in TRPM7-mediated anoxic cell death dosed after oxygen glucose deprivation condition by propidium iodide uptake assay. To be noted: Primary neuron.
With `COc1ccc(OC)c(SCc2nnc(-c3ccc([N+](=O)[O-])c(C)c3)o2)c1`, the inhibition result is “Active”.

Tested on in the next assay: not listed separately
In words: Inhibition of cell proliferation of human WERI cells at 10 uM incubated for 48 to 96 hrs. It counts as functional.
Details: not given
On to `COc1ccc(OC)c(SCc2nnc(-c3ccc([N+](=O)[O-])c(C)c3)o2)c1`, for which the inhibition at 10 µM is above 20%.

The target in another assay is Transient receptor potential cation channel subfamily M member 7 (Rattus norvegicus) (UniProt Q925B3). The assay is described as follows: Inhibition of TRPM7 in rat H9C2 cells assessed as reduction in channel currents at 0.3 to 30 uM by whole cell patch clamp assay. The format is cell-based.
Sequence of Transient receptor potential cation channel subfamily M member 7 (Rattus norvegicus) (Q925B3 whole entry): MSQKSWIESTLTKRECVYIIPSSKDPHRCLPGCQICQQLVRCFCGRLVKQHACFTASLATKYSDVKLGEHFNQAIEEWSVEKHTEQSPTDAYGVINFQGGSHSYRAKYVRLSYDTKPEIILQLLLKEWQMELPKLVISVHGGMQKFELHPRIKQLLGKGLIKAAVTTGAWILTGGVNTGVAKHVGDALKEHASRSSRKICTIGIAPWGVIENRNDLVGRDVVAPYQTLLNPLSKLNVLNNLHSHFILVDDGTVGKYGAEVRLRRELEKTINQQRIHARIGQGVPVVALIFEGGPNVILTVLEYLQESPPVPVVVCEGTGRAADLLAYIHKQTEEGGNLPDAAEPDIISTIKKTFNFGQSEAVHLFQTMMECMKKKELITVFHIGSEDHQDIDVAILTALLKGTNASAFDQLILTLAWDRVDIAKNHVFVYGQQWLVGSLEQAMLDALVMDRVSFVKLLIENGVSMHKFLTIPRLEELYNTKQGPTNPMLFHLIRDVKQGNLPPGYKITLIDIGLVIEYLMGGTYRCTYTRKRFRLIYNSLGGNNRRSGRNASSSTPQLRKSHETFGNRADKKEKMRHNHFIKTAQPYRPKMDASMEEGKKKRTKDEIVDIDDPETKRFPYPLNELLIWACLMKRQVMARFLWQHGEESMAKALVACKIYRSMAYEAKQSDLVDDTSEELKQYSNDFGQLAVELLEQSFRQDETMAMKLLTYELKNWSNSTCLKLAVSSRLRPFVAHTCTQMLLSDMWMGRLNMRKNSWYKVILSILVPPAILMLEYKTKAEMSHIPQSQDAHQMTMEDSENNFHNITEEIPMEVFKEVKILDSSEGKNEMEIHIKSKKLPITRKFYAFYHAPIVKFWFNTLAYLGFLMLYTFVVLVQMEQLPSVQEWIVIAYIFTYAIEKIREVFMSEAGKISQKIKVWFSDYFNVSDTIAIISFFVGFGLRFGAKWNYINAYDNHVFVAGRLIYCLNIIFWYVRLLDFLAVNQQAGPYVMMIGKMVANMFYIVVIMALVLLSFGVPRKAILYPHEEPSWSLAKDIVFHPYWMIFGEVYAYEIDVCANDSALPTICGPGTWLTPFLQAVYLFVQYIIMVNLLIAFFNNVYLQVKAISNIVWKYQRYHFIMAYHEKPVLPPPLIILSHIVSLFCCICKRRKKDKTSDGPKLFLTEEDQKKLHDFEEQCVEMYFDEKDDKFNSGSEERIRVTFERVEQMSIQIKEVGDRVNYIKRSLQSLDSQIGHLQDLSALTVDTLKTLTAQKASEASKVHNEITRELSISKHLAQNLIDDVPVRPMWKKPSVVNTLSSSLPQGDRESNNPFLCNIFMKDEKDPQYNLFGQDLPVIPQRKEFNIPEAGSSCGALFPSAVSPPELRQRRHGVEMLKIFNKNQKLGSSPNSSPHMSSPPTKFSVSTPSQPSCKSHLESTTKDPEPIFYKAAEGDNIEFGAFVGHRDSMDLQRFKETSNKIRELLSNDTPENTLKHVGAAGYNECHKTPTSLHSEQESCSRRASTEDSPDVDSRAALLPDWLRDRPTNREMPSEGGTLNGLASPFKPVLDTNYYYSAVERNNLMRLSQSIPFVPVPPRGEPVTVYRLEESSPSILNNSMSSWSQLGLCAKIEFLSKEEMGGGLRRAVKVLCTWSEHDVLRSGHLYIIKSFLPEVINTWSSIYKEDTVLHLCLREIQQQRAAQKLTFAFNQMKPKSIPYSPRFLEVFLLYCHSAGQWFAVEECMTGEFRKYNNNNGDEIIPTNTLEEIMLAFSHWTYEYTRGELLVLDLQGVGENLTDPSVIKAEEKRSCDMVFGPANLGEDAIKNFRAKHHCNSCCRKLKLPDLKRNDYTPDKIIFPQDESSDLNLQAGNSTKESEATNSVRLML
Details: not given
Regarding `COc1ccc(OC)c(SCc2nnc(-c3ccc([N+](=O)[O-])c(C)c3)o2)c1`, the inhibition entry is “Active”.
